Test results taken from PubChem BioAssay (NCI).
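Method: 48-hour compound exposure of cells in 96-well plates, five concentrations, linear interpolation of endpoints. Abbreviation: GI50, concentration required for 50% inhibition of growth. The concentration for full growth arrest is given as TGI.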

How the values were obtained:
Assay in all cases: growth of human tumour cells (NCI), 48 h
MCF7 breast = tested on: MCF7 breast
OVCAR-8 ovarian = tested on: OVCAR-8 ovarian
NCI-H226 lung = tested on: NCI-H226 lung
RPMI-8226 leukemia = tested on: RPMI-8226 leukemia
NCI/ADR-RES ovarian = tested on: NCI/ADR-RES ovarian
K-562 leukemia = tested on: K-562 leukemia
UO-31 renal = tested on: UO-31 renal
786-0 renal = tested on: 786-0 renal
MALME-3M melanoma = tested on: MALME-3M melanoma
MDA-MB-231 breast = tested on: MDA-MB-231 breast
HCT-116 colon = tested on: HCT-116 colon
SK-MEL-5 melanoma = tested on: SK-MEL-5 melanoma
A498 renal = tested on: A498 renal
UACC-257 melanoma = tested on: UACC-257 melanoma
TK-10 renal = tested on: TK-10 renal
OVCAR-4 ovarian = tested on: OVCAR-4 ovarian
MDA-MB-435 = tested on: MDA-MB-435
CCRF-CEM leukemia = tested on: CCRF-CEM leukemia
U251 CNS = tested on: U251 CNS
CAKI-1 renal = tested on: CAKI-1 renal
EKVX NSCLC = tested on: EKVX NSCLC
BT-549 breast = tested on: BT-549 breast
MOLT-4 leukemia = tested on: MOLT-4 leukemia
SK-OV-3 ovarian = tested on: SK-OV-3 ovarian
KM12 colon = tested on: KM12 colon
NCI-H460 lung = tested on: NCI-H460 lung
COLO 205 colon = tested on: COLO 205 colon
A549 NSCLC = tested on: A549 NSCLC
M14 melanoma = tested on: M14 melanoma
SF-539 CNS = tested on: SF-539 CNS
NCI-H522 lung = tested on: NCI-H522 lung
HS 578T breast = tested on: HS 578T breast
SNB-19 CNS = tested on: SNB-19 CNS
HOP-92 NSCLC = tested on: HOP-92 NSCLC
SK-MEL-28 melanoma = tested on: SK-MEL-28 melanoma
T-47D breast = tested on: T-47D breast
HCT-15 colon = tested on: HCT-15 colon
DU-145 prostate = tested on: DU-145 prostate
LOX IMVI melanoma = tested on: LOX IMVI melanoma
SN12C renal = tested on: SN12C renal
UACC-62 melanoma = tested on: UACC-62 melanoma
RXF 393 renal = tested on: RXF 393 renal
SW-620 colon = tested on: SW-620 colon
SK-MEL-2 melanoma = tested on: SK-MEL-2 melanoma
OVCAR-5 ovarian = tested on: OVCAR-5 ovarian
HL-60(TB) leukemia = tested on: HL-60(TB) leukemia
SF-268 CNS = tested on: SF-268 CNS
PC-3 prostate = tested on: PC-3 prostate
ACHN renal = tested on: ACHN renal
SF-295 CNS = tested on: SF-295 CNS
NCI-H23 lung = tested on: NCI-H23 lung
HCC-2998 colon = tested on: HCC-2998 colon
HOP-62 NSCLC = tested on: HOP-62 NSCLC
HT29 colon = tested on: HT29 colon
IGROV1 ovarian = tested on: IGROV1 ovarian

O=C(CCCCCCNC(=O)c1csc(Br)n1)NO
GI50 (MCF7 breast): 1.41 µM | TGI (MCF7 breast): > 33.3 µM | GI50 (OVCAR-8 ovarian): 0.961 µM | TGI (OVCAR-8 ovarian): 9.58 µM | GI50 (NCI-H226 lung): 5.17 µM | TGI (NCI-H226 lung): > 33.3 µM | GI50 (RPMI-8226 leukemia): 0.951 µM | TGI (RPMI-8226 leukemia): 13.4 µM | GI50 (NCI/ADR-RES ovarian): 0.694 µM | TGI (NCI/ADR-RES ovarian): 2.5 µM | GI50 (K-562 leukemia): 1.13 µM | TGI (K-562 leukemia): > 33.3 µM | GI50 (UO-31 renal): 1.12 µM | TGI (UO-31 renal): > 33.3 µM | GI50 (786-0 renal): 2.44 µM | TGI (786-0 renal): > 33.3 µM | GI50 (MALME-3M melanoma): 0.787 µM | TGI (MALME-3M melanoma): > 33.3 µM | GI50 (MDA-MB-231 breast): 2.01 µM | TGI (MDA-MB-231 breast): > 33.3 µM | GI50 (HCT-116 colon): 0.892 µM | TGI (HCT-116 colon): 3.78 µM | GI50 (SK-MEL-5 melanoma): 1.24 µM | TGI (SK-MEL-5 melanoma): 4.9 µM | GI50 (A498 renal): 0.676 µM | TGI (A498 renal): 2.08 µM | GI50 (UACC-257 melanoma): 0.853 µM | TGI (UACC-257 melanoma): 3.33 µM | GI50 (TK-10 renal): 0.619 µM | TGI (TK-10 renal): 2.55 µM | GI50 (OVCAR-4 ovarian): 3.65 µM | TGI (OVCAR-4 ovarian): > 33.3 µM | GI50 (MDA-MB-435): 1.05 µM | TGI (MDA-MB-435): 6.3 µM | GI50 (CCRF-CEM leukemia): 1.06 µM | TGI (CCRF-CEM leukemia): > 33.3 µM | GI50 (U251 CNS): 1.53 µM | TGI (U251 CNS): 7.23 µM | GI50 (CAKI-1 renal): 1.12 µM | TGI (CAKI-1 renal): 8.22 µM | GI50 (EKVX NSCLC): 1.99 µM | TGI (EKVX NSCLC): > 33.3 µM | GI50 (BT-549 breast): 3.05 µM | TGI (BT-549 breast): > 33.3 µM | GI50 (MOLT-4 leukemia): 1.02 µM | TGI (MOLT-4 leukemia): > 33.3 µM | GI50 (SK-OV-3 ovarian): 1.04 µM | TGI (SK-OV-3 ovarian): 5.43 µM | GI50 (KM12 colon): 2.75 µM | TGI (KM12 colon): > 33.3 µM | GI50 (NCI-H460 lung): 1.25 µM | TGI (NCI-H460 lung): > 33.3 µM | GI50 (COLO 205 colon): 0.7 µM | TGI (COLO 205 colon): 1.78 µM | GI50 (A549 NSCLC): 1.35 µM | TGI (A549 NSCLC): 14.4 µM | GI50 (M14 melanoma): 1.64 µM | TGI (M14 melanoma): > 33.3 µM | GI50 (SF-539 CNS): 1.62 µM | TGI (SF-539 CNS): > 33.3 µM | GI50 (NCI-H522 lung): 0.844 µM | TGI (NCI-H522 lung): 5.09 µM | GI50 (HS 578T breast): 0.917 µM | TGI (HS 578T breast): 22.1 µM | GI50 (SNB-19 CNS): 3.2 µM | TGI (SNB-19 CNS): > 33.3 µM | GI50 (HOP-92 NSCLC): 0.706 µM | TGI (HOP-92 NSCLC): 2.24 µM | GI50 (SK-MEL-28 melanoma): 1.29 µM | TGI (SK-MEL-28 melanoma): > 33.3 µM | GI50 (T-47D breast): 0.648 µM | TGI (T-47D breast): 1.83 µM | GI50 (HCT-15 colon): 2.16 µM | TGI (HCT-15 colon): > 33.3 µM | GI50 (DU-145 prostate): 1.21 µM | TGI (DU-145 prostate): > 33.3 µM | GI50 (LOX IMVI melanoma): 0.0473 µM | TGI (LOX IMVI melanoma): 3.79 µM | GI50 (SN12C renal): 2.95 µM | TGI (SN12C renal): > 33.3 µM | GI50 (UACC-62 melanoma): 0.699 µM | TGI (UACC-62 melanoma): 2.5 µM | GI50 (RXF 393 renal): 0.929 µM | TGI (RXF 393 renal): 3.11 µM | GI50 (SW-620 colon): 0.637 µM | TGI (SW-620 colon): 1.58 µM | GI50 (SK-MEL-2 melanoma): 1.18 µM | TGI (SK-MEL-2 melanoma): 6.73 µM | GI50 (OVCAR-5 ovarian): 1.16 µM | TGI (OVCAR-5 ovarian): > 33.3 µM | GI50 (HL-60(TB) leukemia): 1.27 µM | TGI (HL-60(TB) leukemia): > 33.3 µM | GI50 (SF-268 CNS): 2.43 µM | TGI (SF-268 CNS): > 33.3 µM | GI50 (PC-3 prostate): 2.43 µM | TGI (PC-3 prostate): > 33.3 µM | GI50 (ACHN renal): 1.18 µM | TGI (ACHN renal): 7.53 µM | GI50 (SF-295 CNS): 1.66 µM | TGI (SF-295 CNS): 9.37 µM | GI50 (NCI-H23 lung): 1.9 µM | TGI (NCI-H23 lung): > 33.3 µM | GI50 (HCC-2998 colon): 3.4 µM | TGI (HCC-2998 colon): 13.1 µM | GI50 (HOP-62 NSCLC): 1.41 µM | TGI (HOP-62 NSCLC): > 33.3 µM | GI50 (HT29 colon): 0.985 µM | TGI (HT29 colon): 5.56 µM | GI50 (IGROV1 ovarian): 1.69 µM | TGI (IGROV1 ovarian): > 33.3 µM
